The values below are quoted from earlier work in patent US11453647B2, “Benzimidazole derivatives as adenosine receptor antagonists” (Merck Patent GmbH, priority 2017, dated 2022).

The target in the data set is T1, A2B receptors (Homo sapiens, UniProt P29275).
T1 sequence (P29275 1-332): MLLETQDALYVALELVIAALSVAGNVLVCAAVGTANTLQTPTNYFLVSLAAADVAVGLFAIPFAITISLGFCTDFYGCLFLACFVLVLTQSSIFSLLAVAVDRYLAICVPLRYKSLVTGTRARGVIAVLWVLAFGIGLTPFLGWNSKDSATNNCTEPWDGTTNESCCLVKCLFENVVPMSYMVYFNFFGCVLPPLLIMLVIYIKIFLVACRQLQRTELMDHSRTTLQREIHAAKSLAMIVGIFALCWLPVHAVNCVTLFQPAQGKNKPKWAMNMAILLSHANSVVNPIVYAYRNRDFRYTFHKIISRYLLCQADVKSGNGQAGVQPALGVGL
As to conditions: antagonists; cited from earlier work.

Regarding `CCCn1c(=O)[nH]c(=O)c2[nH]cnc21` [enprofylline, 3-n-propylxanthine], the “affinities on A2B receptors” value was “mid to high nM range”.

On to `CCCn1c(=O)c2[nH]c(-c3ccc(S(=O)(=O)O)cc3)nc2n(CCC)c1=O` [DPSPX, 1,3-dipropyl-8-sulphophenylxanthine], for which the “affinities on A2B receptors” value is on record as “mid to high nM range”. As for `O=c1[nH]c(=O)c2nc3ccccc3nc2[nH]1` [alloxazine, 2,4-dioxobenzopteridine], the “affinities on A2B receptors” value is listed as “mid to high nM range”.
